Measurements from publication PMC4229968, “The Inhibition of the Components from Shengmai Injection towards UDP-Glucuronosyltransferase” (Evidence-based Complementary and Alternative Medicine : eCAM, 2014).
Like-named read-outs stand apart in the source and are kept apart here.

Legend:
Format in all cases: in vitro ADME
[1] = target: T1, UGT2B4 (Homo sapiens, UniProt P06133); assay: Recombinant UGT2B4-catalyzed 4-MU glucuronidation inhibition; settings: pH 7.4, probe 4-methylumbelliferone (4-MU), UGT2B4, 100 μM of compound, 4-MU substrate, read-out: residual activity
T1 construct: purchased BD Gentest Corp. (Woburn, MA, USA); host or cells: baculovirus-infected insect cells
T1 sequence (P06133 24-528): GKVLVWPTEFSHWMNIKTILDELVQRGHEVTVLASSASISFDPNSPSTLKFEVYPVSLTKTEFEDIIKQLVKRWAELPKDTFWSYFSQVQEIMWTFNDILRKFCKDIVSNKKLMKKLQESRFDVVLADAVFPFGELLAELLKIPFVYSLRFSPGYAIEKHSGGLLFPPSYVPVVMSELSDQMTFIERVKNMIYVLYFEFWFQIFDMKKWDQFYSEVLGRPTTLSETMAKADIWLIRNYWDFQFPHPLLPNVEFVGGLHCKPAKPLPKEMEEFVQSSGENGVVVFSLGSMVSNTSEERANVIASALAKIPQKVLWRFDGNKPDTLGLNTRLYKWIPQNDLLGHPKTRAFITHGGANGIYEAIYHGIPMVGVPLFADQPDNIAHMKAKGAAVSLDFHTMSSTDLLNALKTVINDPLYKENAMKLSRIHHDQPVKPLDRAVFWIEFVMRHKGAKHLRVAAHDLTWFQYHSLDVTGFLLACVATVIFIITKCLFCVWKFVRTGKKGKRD
From the text: (§1) 4-Methylumbelliferone (4-MU), 4-methylumbelliferone-β-D-glucuronide (4-MUG), Tris-HCl, 7-hydroxycoumarin, and uridine-5′-diphosphoglucuronic acid (UDPGA) (trisodium salt) were purchased from Sigma-Aldrich (St. Louis, MO). Recombinant human UGT isoforms (UGT1A1, UGT1A3, UGT1A4, UGT1A6, UGT1A7, UGT1A8, UGT1A9, UGT1A10, UGT2B4, UGT2B7, and UGT2B15) expressed in baculovirus-infected insect cells were obtained from BD Gentest Corp. (Woburn, MA, USA). Ophiopogonin D (OD), ophiopogonin D′ (OD′), methylophiopogonanone A (MA), methylophiopogonanone B (MB), and ruscorectal (RU) were purchased from Sichuan Weikeqi Biotechnology Company (Chengdu, Sichuan, China). The purity of these compounds was above 95%. All other reagents were of HPLC grade or of the highest grade commercially available.
(§2) 4-MU, the nonspecific probe substrate for all the UGT isoforms except UGT1A4, was used in the present study to initially screen the inhibition potential of maidong's components towards UGT isoforms as previously reported. In brief, the incubation system (total volume = 200 μL) consisted of recombinant UGTs, 5 mM UDPGA, 5 mM MgCl2, 50 mM Tris-HCl (pH = 7.4), and 4-MU in the absence or presence of different concentrations of maidong's components. The compounds were dissolved in DMSO, and the final concentration of DMSO was below 0.5% (v/v). The used incubation time and protein concentration were previously determined to ensure the reaction rate within the linear range. The 4-MU concentration was equal to known K m or S 50 values for each UGT isoform. After 5 min preincubation at 37°C, the incubation reaction was initiated via adding UDPGA to the mixture system. The reactions were quenched by adding 100 μL acetonitrile with 7-hydroxycoumarin (100 μM) as internal standard. Centrifuged at 20000 ×g for 10 min, an aliquot of supernatant was transferred to an autoinjector vial for HPLC analysis. The HPLC system (Shimadzu, Kyoto, Japan) contained a SCL-10A system controller, two LC-10AT pumps, a SIL-10A autoinjector, and a SPD-10AVP UV detector. Chromatographic separation was carried out using a C18 column (4.6 × 200 mm, 5 μm, Kromasil) at a flow rate of 1 mL/min and UV detector at 316 nm. The mobile phase consisted of acetonitrile (A) and H2O containing 0.5% (v/v) formic acid (B). The following gradient condition was used: 0–15 min, 95–40% B; 15–20 min, 10% B; 20–30 min, 95% B.

[2] = target: T2, UGT1A9 (Homo sapiens, UniProt O60656); assay: Recombinant UGT1A9-catalyzed 4-MU glucuronidation inhibition; settings: pH 7.4, probe 4-methylumbelliferone (4-MU), UGT1A9, 100 μM of compound, 4-MU substrate, read-out: residual activity
T2 construct: purchased BD Gentest Corp. (Woburn, MA, USA); host or cells: baculovirus-infected insect cells
T2 sequence (O60656 26-530): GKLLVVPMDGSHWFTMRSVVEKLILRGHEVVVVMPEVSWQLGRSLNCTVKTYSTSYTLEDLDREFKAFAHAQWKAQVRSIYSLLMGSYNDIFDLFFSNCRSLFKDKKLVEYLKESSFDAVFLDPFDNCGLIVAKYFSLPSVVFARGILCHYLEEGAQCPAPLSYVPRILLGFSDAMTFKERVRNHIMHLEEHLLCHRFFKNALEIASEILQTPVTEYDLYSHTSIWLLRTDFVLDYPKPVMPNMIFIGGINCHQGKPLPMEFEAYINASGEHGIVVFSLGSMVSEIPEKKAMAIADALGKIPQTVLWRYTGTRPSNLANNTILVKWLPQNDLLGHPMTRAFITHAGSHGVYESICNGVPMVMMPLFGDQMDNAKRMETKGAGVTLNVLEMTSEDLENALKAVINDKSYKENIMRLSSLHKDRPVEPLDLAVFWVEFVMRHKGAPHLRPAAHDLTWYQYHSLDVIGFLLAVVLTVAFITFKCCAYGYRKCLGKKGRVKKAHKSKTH
From the text: as §1, §2

[3] = target: T3, UGT1A6 (Homo sapiens, UniProt P19224); assay: Recombinant UGT1A6-catalyzed 4-MU glucuronidation inhibition; settings: for activity at 100 µM / inhibition at 100 µM: human, pH 7.4, probe 4-methylumbelliferone (4-MU); for activity at 100 µM: UGT1A6, 100 μM of compound, 4-MU substrate, read-out: residual activity; for inhibition type: UGT1A6, Dixon and Lineweaver-Burk plots; for inhibition at 100 µM: UGT1A6, at 100 μM, read-out: inhibition percent
T3 construct: purchased BD Gentest Corp. (Woburn, MA, USA); host or cells: baculovirus-infected insect cells
T3 sequence (P19224 27-532): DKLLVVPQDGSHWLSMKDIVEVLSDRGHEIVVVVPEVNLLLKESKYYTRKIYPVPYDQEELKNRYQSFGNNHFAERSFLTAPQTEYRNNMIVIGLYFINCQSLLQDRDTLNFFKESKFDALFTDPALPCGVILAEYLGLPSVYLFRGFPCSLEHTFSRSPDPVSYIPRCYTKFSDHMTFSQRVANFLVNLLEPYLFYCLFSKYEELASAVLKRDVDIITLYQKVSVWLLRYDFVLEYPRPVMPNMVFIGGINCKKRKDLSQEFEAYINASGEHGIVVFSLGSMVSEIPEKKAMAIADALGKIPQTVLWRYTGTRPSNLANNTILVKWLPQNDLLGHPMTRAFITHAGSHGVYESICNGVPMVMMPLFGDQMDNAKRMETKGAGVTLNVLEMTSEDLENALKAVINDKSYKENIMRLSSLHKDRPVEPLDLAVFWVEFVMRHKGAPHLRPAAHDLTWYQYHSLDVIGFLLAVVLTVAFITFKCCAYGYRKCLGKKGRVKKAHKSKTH
From the text: as §1, §2
To determine the inhibition kinetic type and parameters (K i), the reaction velocity (V) was determined at multiple concentrations of maidong's components and 4-MU (or TFP). Dixon plot and Lineweaver-Burk plot were used to fit the data. The inhibition kinetic type was evaluated through determining the intersection point in the Dixon and Lineweaver-Burk plots.
K m value is the substrate concentration in which the velocity reached half of the maximum velocity (V max) of the reaction. K i value is the inhibition constant.

| SMILES | activity at 100 µM [1] [%] | activity at 100 µM [2] [%] | activity at 100 µM [3] [%] | Ki ([3]; UGT1A6-catalyzed 4-MU glucuronidation, read-out: inhibition kinetic parameter (Ki)) [µM] | inhibition type [3] | inhibition at 100 µM [3] [%] | Ki [3] [µM] |
| --- | --- | --- | --- | --- | --- | --- | --- |
| COc1ccc(C[C@@H]2COc3c(C)c(O)c(C)c(O)c3C2=O)cc1 [MB, methylophiopogonanone B] | 73.2 ± 1.2 | 68.2 ± 1.5 | 65.3 ± 2 | – | – | – | – |
| C[C@@H]1CC[C@@]2(OC1)O[C@H]1C[C@H]3[C@@H]4CC=C5C[C@@H](O[C@@H]6O[C@H](CO)[C@@H](O)[C@H](O[C@@H]7OC[C@@H](O)[C@H](O)[C@H]7O)[C@H]6O[C@@H]6O[C@@H](C)[C@H](O)[C@@H](O)[C@H]6O)CC[C@]5(C)[C@H]4CC[C@]3(C)[C@H]1[C@@H]2C [OD′, ophiopogonin D′] | 118 ± 21.8 | 134 ± 2.1 | 12.1 ± 1.9 | 5.3 | noncompetitively inhibited | 87.9 | – |
| Cc1c(O)c(C)c2c(c1O)C(=O)[C@H](Cc1ccc3c(c1)OCO3)CO2 [MA, methylophiopogonanone A] | 71.1 ± 1.5 | 38.7 | 67 ± 1.7 | – | – | – | – |
| C[C@@H]1CC[C@@]2(OC1)O[C@H]1C[C@H]3[C@@H]4CC=C5C[C@@H](O)C[C@@H](O[C@@H]6O[C@H](C)[C@H](O)[C@H](O[C@@H]7OC[C@@H](O)[C@H](O)[C@H]7O)[C@H]6O[C@@H]6O[C@@H](C)[C@H](O)[C@@H](O)[C@H]6O)[C@]5(C)[C@H]4CC[C@]3(C)[C@H]1[C@@H]2C [OD, ophiopogonin D] | 102 ± 2.6 | 135 ± 1.5 | 12.8 ± 3.1 | – | noncompetitively inhibited | 87.2 | 20.6 |
| CC1CCC2(OC1)OC1CC3C4CC=C5CC(O)CC(O)C5(C)C4CCC3(C)C1C2C (stereo not drawn) [RU, ruscorectal] | 88.4 ± 1.6 | 110.7 ± 1.1 | 65.9 ± 11.6 | – | – | – | – |
